In patent US9024041B2, “P38 MAP kinase inhibitors” (Respivert Ltd., priority 2010, dated 2015):
Marks after values point to notes of the source that are not given here.

What was measured:
[1] = tested on: Differentiated U937 cells; experiment: MTT assay: cell viability on exposure to test compounds; format: cell-based, human; details: percentage loss of cell viability vs vehicle; for MTT Assay (Viability) 4 h d-U937: 5% FCS; for MTT Assay (Viability) 24 h d-U937: 10% FCS
Method in brief: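 Differentiated U937 cells were pre-incubated with compound for either 4 h in 5% FCS or 24 h in 10% FCS, then given MTT for 1 h. Formazan was dissolved in DMSO and read at 550 nm. Viability loss is expressed as % versus 0.5% DMSO vehicle, so an apparent gain appears as a negative value.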

[2] = molecular target: T1, Recombinant, phosphorylated p38 MAPKγ (MAPK12:Invitrogen) (Homo sapiens, UniProt P53778); experiment: p38 MAPKγ enzyme inhibition assay (FRET, Z-LYTE); format: biochemical; details: 2 hr pre-incubation, ATP 100 μM; read-out: Enzyme Inhibition IC50 p38γ
T1 construct: purchased Invitrogen
T1 sequence (P53778 1-367): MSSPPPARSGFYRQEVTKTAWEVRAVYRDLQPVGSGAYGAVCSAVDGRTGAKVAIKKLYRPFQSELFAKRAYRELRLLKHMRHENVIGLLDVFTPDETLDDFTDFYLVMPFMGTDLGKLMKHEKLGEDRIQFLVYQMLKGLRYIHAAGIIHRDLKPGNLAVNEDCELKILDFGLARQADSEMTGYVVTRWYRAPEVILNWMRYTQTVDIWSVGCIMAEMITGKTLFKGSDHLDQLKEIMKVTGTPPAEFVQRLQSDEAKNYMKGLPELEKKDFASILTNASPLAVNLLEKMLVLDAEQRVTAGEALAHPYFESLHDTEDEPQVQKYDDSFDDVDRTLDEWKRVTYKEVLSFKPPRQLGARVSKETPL

[3] = tested on: Poly I:C-induced ICAM-1 expression in BEAS2B cells; experiment: Poly I:C-induced ICAM-1 induction in BEAS2B cells; format: cell-based; details: Homo sapiens, BEAS-2B, poly I:C 1 μg/mL, 18 hr, read-out: PolyI:C/ICAM1 IC50 BEAS2B
Method in brief: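 Human bronchial epithelial BEAS2B cells were pre-incubated with compound for 2 h, then transfected with poly I:C at 1 μg/mL. Surface ICAM-1 was measured 18 h later by cell-based ELISA (OD450–655), normalised to crystal-violet cell number (OD595). IC50 was taken from the concentration–response curve against vehicle.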

[4] = tested on: LPS-induced TNFα release in THP-1 cells; experiment: LPS-induced TNFα release in THP-1 cells; format: cell-based; details: Homo sapiens, 3 μg/mL LPS, 4 hr
Method in brief: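 Human monocytic cells were stimulated with 3 μg/mL E. coli LPS for 4 hr. Supernatant TNFα was measured by sandwich ELISA. Inhibition was taken relative to vehicle control, and IC50 derived from the concentration-response curve.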

[5] = tested on: LPS-induced TNFα release in d-U937 cells; experiment: LPS-induced TNFα release in d-U937 cells; format: cell-based; details: Homo sapiens, dU937, 4 h; read-out: LPS/TNFα REC50 d-U937
Method in brief: (§1)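 U937 cells differentiated with PMA (100 ng/mL, 48–72 hr), pre-incubated with compound 2 hr, then stimulated with 0.1 μg/mL E. coli O111:B4 LPS for 4 hr. Supernatant TNFα and IL-8 measured by sandwich ELISA; REC50 (TNFα) and IC50 (IL-8 inhibition vs vehicle) taken from concentration-response curves.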

[6] = molecular target: T2, p38 MAPKα isoform (MAPK14: Invitrogen) (Homo sapiens, UniProt Q16539); experiment: p38 MAPKα enzyme inhibition assay (FRET, Z-LYTE, via MAPKAP-K2 activation); format: biochemical; details: 2 hr pre-incubation, ATP 10.0 μM; read-out: Enzyme Inhibition IC50 p38α
T2 construct: purchased Invitrogen
T2 sequence (Q16539 whole entry, canonical isoform): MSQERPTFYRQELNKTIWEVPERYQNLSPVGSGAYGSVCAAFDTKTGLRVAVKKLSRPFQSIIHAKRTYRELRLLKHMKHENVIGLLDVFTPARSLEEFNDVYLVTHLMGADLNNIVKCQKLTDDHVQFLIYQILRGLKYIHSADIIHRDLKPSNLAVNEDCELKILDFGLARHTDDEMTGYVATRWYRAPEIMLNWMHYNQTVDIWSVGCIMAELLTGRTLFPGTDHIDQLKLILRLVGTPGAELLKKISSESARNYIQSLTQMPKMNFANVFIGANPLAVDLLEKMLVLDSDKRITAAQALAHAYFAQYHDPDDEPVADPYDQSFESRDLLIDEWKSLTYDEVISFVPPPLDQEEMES

[7] = tested on: LPS-induced IL-8 release in d-U937 cells; experiment: LPS-induced IL-8 release in d-U937 cells; format: cell-based; details: Homo sapiens, dU937, 0.1 μg/mL LPS, 4 hr
Method in brief: as §1

SMILES	MTT Assay (Viability) 4 h d-U937 ([1]; 10 μg/mL)	MTT Assay (Viability) 24 h d-U937 ([1]; 10 μg/mL)	IC50 [2]	IC50 [3]	IC50 [4]	EC50 [5]	IC50 [6]	IC50 [7]	MTT Assay (Viability) 4 h d-U937 ([1]; 1 μg/mL)	MTT Assay (Viability) 24 h d-U937 ([1]; 1 μg/mL)
COCCOCC(=O)Nc1cc(C(=O)c2ccc(NC(=O)Nc3cc(C(C)(C)C)nn3-c3ccc(C)cc3)c3ccccc23)ccn1 [Example 22, N-(4-(4-(3-(3-(tert-Butyl)-1-(p-tolyl)-1H-pyrazol-5-yl)ureido)-1-naphthoyl)pyridin-2-yl)-2-(2-methoxyethoxy)acetamide]	21.1^b %	80.8^b %	7030 nM	572 nM	53.6 nM	3 nM	14 nM	651 nM		
COCC(=O)Nc1cc(Oc2ccc(NC(=O)Nc3cc(C(C)(C)C)nn3-c3ccc(S(C)(=O)=O)cc3)c3ccccc23)ncn1 [Example 50, N-(6-(4-(3-(3-tert-butyl-1-(4-(methylsulfonyl)phenyl)-1H-pyrazol-5-yl)ureido)naphthalen-1-yloxy)pyrimidin-4-yl)-2-methoxyacetamide]			39.3 nM	100 nM	13.3 nM	4.5 nM	9.5 nM	272 nM	−8.0%	−10.4%
COc1ccc(-n2nc(C(C)(C)C)cc2NC(=O)Nc2ccc(Oc3ccnc(NC(=O)CO)c3)c3ccccc23)cc1 [Example 4, N-(4-(4-(3-(3-tert-Butyl-1-(4-methoxyphenyl)-1H-pyrazol-5-yl)ureido)naphthalen-1-yloxy)pyridin-2-yl)-2-hydroxyacetamide]			150 nM	4 nM	1.3 nM	0.04 nM	4.6 nM	3 nM	−3.9%	−38.2%
COCC(=O)Nc1cc(Oc2ccc(NC(=O)Nc3cc(C(C)(C)C)nn3-c3ccc(NS(C)(=O)=O)cc3)c3ccccc23)ccn1 [Example 2, N-(4-(4-(3-(3-tert-Butyl-1-(4-(methylsulfonamido)phenyl)-1H-pyrazol-5-yl)ureido)naphthalen-1-yloxy)pyridin-2-yl)-2-methoxyacetamide]			42.3 nM	4.1 nM	1.3 nM	0.4 nM	13 nM	7.2 nM	−13.2%	15.1%
CNC(=O)Nc1cc(Oc2ccc(NC(=O)Nc3cc(C(C)(C)C)nn3-c3ccc(OC)cc3)c(C)c2C)ccn1 [Example 37, 1-(4-(4-(3-(3-tert-butyl-1-(4-methoxyphenyl)-1H-pyrazol-5-yl)ureido)-2,3-dimethylphenoxy)pyridin-2-yl)-3-methylurea]			117 nM	2.6 nM	1.5 nM	1.4 nM	29.1 nM	18.1 nM	5.3%	42.7%
CC(C)(C)c1cc(NC(=O)Nc2ccc(Oc3ccnc(NC(=O)NC4CC4)c3)c3ccccc23)n(-c2ccc(S(C)(=O)=O)cc2)n1 [Example 47, 1-(3-tert-butyl-1-(4-(methylsulfonyl)phenyl)-1H-pyrazol-5-yl)-3-(4-(2-(3-cyclopropylureido)pyridin-4-yloxy)naphthalen-1-yl)urea]			262 nM	2.4 nM	17.3 nM	17 nM	8.4 nM	24.3 nM	3.5%	−21.7%
COCC(=O)Nc1cc(Oc2ccc(NC(=O)Nc3cc(C(C)(C)C)nn3-c3ccc(O)c(Cl)c3)c3ccccc23)ccn1 [Example 52, N-(4-(4-(3-(3-tert-butyl-1-(3-chloro-4-hydroxyphenyl)-1H-pyrazol-5-yl)ureido)naphthalen-1-yloxy)pyridin-2-yl)-2-methoxyacetamide]			332 nM	5.7 nM	8.2 nM	16.3 nM	1.9 nM	> 1630 nM	8.5%	−48.8%
COCC(=O)Nc1cc(Sc2ccc(NC(=O)Nc3cc(C(C)(C)C)nn3-c3ccc(C)cc3)c3ccccc23)ccn1 [Example 21, N-(4-(4-(3-(3-tert-Butyl-1-p-tolyl-1H-pyrazol-5-yl)ureido)naphthalen-1-ylthio)pyridin-2-yl)-2-methoxyacetamide]			341 nM	6.3 nM	2.5 nM	6.6 nM	26 nM	30.3 nM	2.7%	5.3%
CNC(=O)Nc1cc(Oc2ccc(NC(=O)Nc3cc(C(C)(C)C)nn3-c3ccc(O)nc3)c(C)c2C)ccn1 [Example 62, 1-(4-(4-(3-(3-tert-butyl-1-(6-hydroxypyridin-3-yl)-1H-pyrazol-5-yl)ureido)-2,3-dimethylphenoxy)pyridin-2-yl)-3-methylurea]			20.3 nM	24.6 nM	2.6 nM	2.5 nM	14.8 nM	14.4 nM	−1.1%	−2.6%
COCC(=O)Nc1cc(Oc2ccc(NC(=O)Nc3cc(C(C)(C)C)nn3-c3ccc(Cl)c(Cl)c3)c3ccccc23)ccn1 [Example 55, N-(4-(4-(3-(3-tert-butyl-1-(3,4-dichlorophenyl)-1H-pyrazol-5-yl)ureido)naphthalen-1-yloxy)pyridin-2-yl)-2-methoxyacetamide]			102 nM	14.7 nM	4.3 nM	0.8 nM	14.9 nM	5.5 nM	−16.1%	−71.1%
COCCOCC(=O)Nc1cc(Cc2ccc(NC(=O)Nc3cc(C(C)(C)C)nn3-c3ccc(C)cc3)c3ccccc23)ccn1 [Example 65, N-(4-((4-(3-(3-tert-butyl-1-p-tolyl-1H-pyrazol-5-yl)ureido)naphthalen-1-yl)methyl)pyridin-2-yl)-2-(2-methoxyethoxy)acetamide]	−1.5^b %	55.9^b %	275 nM	62.7 nM	10.7 nM	10.9 nM	1.2 nM	18.9 nM		
CN1CCN(C(=O)Nc2cc(Oc3ccc(NC(=O)Nc4cc(C(C)(C)C)nn4-c4ccc(S(C)(=O)=O)cc4)c4ccccc34)ccn2)CC1 [Example 48, N-(4-(4-(3-(3-tert-butyl-1-(4-(methylsulfonyl)phenyl)-1H-pyrazol-5-yl)ureido)naphthalen-1-yloxy)pyridin-2-yl)-4-methylpiperazine-1-carboxamide]			123 nM	32.7 nM	3.4 nM	2.4 nM	0.6 nM	5 nM	−16.1%	−11.3%
CNC(=O)Nc1cc(Oc2ccc(NC(=O)Nc3cc(C(C)(C)C)nn3-c3ccc(OC)nc3)c(C)c2C)ccn1 [Example 39, 1-(4-(4-(3-(3-tert-butyl-1-(6-methoxypyridin-3-yl)-1H-pyrazol-5-yl)ureido)-2,3-dimethylphenoxy)pyridin-2-yl)-3-methylurea]			81.8 nM	2.9 nM	1.8 nM	1.8 nM	30.7 nM	23.2 nM	−12.6%	21.6%
COCC(=O)Nc1cc(Oc2ccc(NC(=O)Nc3cc(C4CCOCC4)nn3-c3ccc(C)cc3)c3ccccc23)ccn1 [Example 28, 2-methoxy-N-(4-(4-(3-(3-(tetrahydro-2H-pyran-4-yl)-1-p-tolyl-1H-pyrazol-5-yl)ureido)naphthalen-1-yloxy)pyridin-2-yl)acetamide]			9300 nM	1580 nM	41.3 nM	7.1 nM	1.4 nM	62.7 nM	−23.7%	−34.5%
